Data taken from article PMC11647683, “Structural Aspects of Mycobacterium tuberculosis DNA Gyrase Targeted by Novel Bacterial Topoisomerase Inhibitors” (ACS Medicinal Chemistry Letters, 2024).

Test system: M. tuberculosis LP-FQ-RM9
Assay type: cell-based, Mycobacterium tuberculosis
Conditions: for IC50: read-out: Antituberculosis activity M. tuberculosis LP-FQ-RM9 IC50; for IC90: read-out: Antituberculosis activity M. tuberculosis LP-FQ-RM9 IC90

SMILES	IC50	IC90	activity against the fluoroquinolone-resistant strain (result in words)
COc1ccc2nccc(CCN3CCC(NCc4ccc(I)c(F)c4)CC3)c2n1 [Compound 2]	420 ± 80 nM	580 ± 180 nM	
COc1ccc2nccc(CCN3CCC(NCc4cc(F)c(Br)c(F)c4)CC3)c2n1 [Compound 4]		260 nM	
COc1ccc2nccc(C(O)CC3CCC(NCc4cc(F)c(Br)c(F)c4)CC3)c2n1 (centres unmarked) [Compound 5]		1000 ± 75 nM	
COc1ccc2nccc(CCN3CCC(NCc4cc(F)c(Cl)c(F)c4)CC3)c2n1 [Compound 3]	290 nM	430 nM	
C[C@H]1COc2c(N3CCN(C)CC3)c(F)cc3c(=O)c(C(=O)O)cn1c23 [Levofloxacin, reference compound]	> 10000 nM	> 10000 nM	no activity was observed
COc1ccc2nccc(CCN3CCC(NCc4ccc(Br)c(F)c4)CC3)c2n1 [Compound 1]	380 ± 50 nM	520 ± 145 nM	
